Earlier results in patent US11857520B2, “Therapeutic composition of intranasal lidocaine” (Nortic Holdings Inc., priority 2018, dated 2024).

Tested on: not given
Conditions: generally recognized

Compound	Maximum dose	duration of action
Cc1cccc(C)c1NC(=O)C1CCCCN1C (centres unmarked) [mepivacaine]	4.5 mg/kg	1 to 2 h
CCCCNc1ccc(C(=O)OCCN(C)C)cc1 [tetracaine]	3 mg/kg	1.5 to 6 h
CCN(CC)CC(=O)Nc1c(C)cccc1C [lidocaine]	4.5 mg/kg	0.75 to 1.5 h
CCCNC(C)C(=O)Nc1ccccc1C (centres unmarked) [prilocaine]	8 mg/kg	–
COC(=O)[C@H]1[C@@H](OC(=O)c2ccccc2)C[C@@H]2CC[C@H]1N2C [cocaine]	3 mg/kg	–
CCN(CC)CCOC(=O)c1ccc(N)cc1Cl [chloroprocaine]	12 mg/kg	–
CCCCN1CCCCC1C(=O)Nc1c(C)cccc1C (centres unmarked) [bupivacaine]	3 mg/kg	–
CCN(CC)CCOC(=O)c1ccc(N)cc1 [procaine]	12 mg/kg	–
CCCN1CCCC[C@H]1C(=O)Nc1c(C)cccc1C [ropivacaine]	3 mg/kg	–

Tested on: skin
Conditions: HSDB database

Compound	level irritating to the skin
OCc1ccccc1 [benzyl alcohol]	≥ 3%

Tested on: human retinal pigment epithelial cell
Conditions: 0.225 mg/ml in triamcinolone acetonide (TA) following intravitreal injection, at 2 hours

Compound	effect on human retinal pigment epithelial cells
OCc1ccccc1 [benzyl alcohol]	caused ultrastructural damage and impaired human retinal pigment epithelial cell function
